Measured values from patent US9181230B2, “Morpholine compounds and uses thereof” (Hoffmann-La Roche Inc., priority 2013, dated 2015).
Structures can show the parent of a compound that is named as a salt.

Experiments:
[1] = target: rat TAAR1 (Rattus norvegicus (Rat), UniProt Q923Y9); experiment: Radioligand binding assay on rat TAAR1; details: for Ki: rat TAAR1, membranes of HEK-293 cells, second value of the cell pair mouse/rat
Experimental: (§1) For the construction of expression plasmids the coding sequences of human, rat and mouse TAAR 1 were amplified from genomic DNA essentially as described by Lindemann et al.. The Expand High Fidelity PCR System (Roche Diagnostics) was used with 1.5 mM Mg^2+ and purified PCR products were cloned into pCR2.1-TOPO cloning vector (Invitrogen) following the instructions of the manufacturer. PCR products were subcloned into the pIRESneo2 vector (BD Clontech, Palo Alto, Calif.), and expression vectors were sequence verified before introduction in cell lines.
(§2) HEK293 cells (ATCC # CRL-1573) were cultured essentially as described by Lindemann et al. (2005). For the generation of stably transfected cell lines HEK293 cells were transfected with the pIRESneo2 expression plasmids containing the TAAR coding sequences (described above) with Lipofectamine 2000 (Invitrogen) according to the instructions of the manufacturer, and 24 hrs post transfection the culture medium was supplemented with 1 mg/ml G418 (Sigma, Buchs, Switzerland). After a culture period of about 10 d clones were isolated, expanded and tested for responsiveness to trace amines (all compounds purchased from Sigma) with the cAMP Biotrak Enzyme immunoassay (EIA) System (Amersham) following the non-acetylation EIA procedure provided by the manufacturer.
(B) Radioligand Binding Assay on Rat TAAR1
(§3) Membrane Preparation and Radioligand Binding.
(§4) HEK-293 cells stably expressing rat TAAR1 were maintained at 37° C. and 5% CO2 in DMEM high glucose medium, containing fetal calf serum (10%, heat inactivated for 30 min at 56° C.), penicillin/streptomycin (1%), and 375 μg/ml geneticin (Gibco). Cells were released from culture flasks using trypsin/EDTA, harvested, washed twice with ice-cold PBS (without Ca^2+ and Mg^2+), pelleted at 1,000 rpm for 5 min at 4° C., frozen and stored at −80° C. Frozen pellets were suspended in 20 ml HEPES-NaOH (20 mM, pH 7.4) containing 10 mM EDTA and homogenized with a Polytron (PT 6000, Kinematica) at 14,000 rpm for 20 s. The homogenate was centrifuged at 48,000×g for 30 min at 4° C. Subsequently, the supernatant was removed and discarded, and the pellet resuspended in 20 ml HEPES-NaOH (20 mM, pH 7.4) containing 0.1 mM EDTA using the Polytron (20 s at 14,000 rpm). This procedure was repeated and the final pellet resuspended in HEPES-NaOH containing 0.1 mM EDTA and homogenized using the Polytron. Typically, aliquots of 2 ml membrane portions were stored at −80° C. With each new membrane batch the dissociation constant (Kd) was determined via a saturation curve. […] Nonspecific binding was defined as the amount of ^3[H]-(S)-4-[(ethyl-phenyl-amino)-methyl]-4,5-dihydro-oxazol-2-ylamine bound in the presence of 10 μM unlabeled ligand. All compounds were tested at a broad range of concentrations (10 pM to 10 μM) in duplicates. […] The 96 deep well plates were incubated for 1 hr at 4° C. Incubations were terminated by rapid filtration through Unifilter-96 plates (Packard Instrument Company) and glass filters GF/C (Perkin Elmer) presoaked for 1 hr in polyethylenimine (0.3%) and washed 3 times with 1 ml of cold binding buffer. After addition of 45 μl of Microscint 40 (PerkinElmer) the Unifilter-96 plate was sealed and after 1 hr the ratioactivity counted using a TopCount Microplate Scintillation Counter (Packard Instrument Company).

[2] = target: mouse TAAR1 (Mus musculus (Mouse), UniProt Q923Y8); experiment: Radioligand binding assay on mouse TAAR1; details: for Ki: mouse TAAR1, membranes of HEK-293 cells, first value of the cell pair mouse/rat
Experimental: as §1, §2
(A) Radioligand Binding Assay on Mouse TAAR1
as §3
as §4, with “expressing mouse” for “expressing rat”

Sequence of mouse TAAR1 (Q923Y8 whole entry): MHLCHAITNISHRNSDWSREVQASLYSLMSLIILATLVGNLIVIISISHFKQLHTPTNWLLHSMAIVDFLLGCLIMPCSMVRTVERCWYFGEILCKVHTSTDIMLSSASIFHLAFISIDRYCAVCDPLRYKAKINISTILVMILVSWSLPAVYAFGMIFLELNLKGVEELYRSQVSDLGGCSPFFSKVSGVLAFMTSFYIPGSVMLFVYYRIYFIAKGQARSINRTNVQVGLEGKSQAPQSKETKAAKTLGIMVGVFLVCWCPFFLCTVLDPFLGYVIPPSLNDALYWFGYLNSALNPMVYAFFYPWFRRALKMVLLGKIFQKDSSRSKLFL
Sequence of rat TAAR1 (Q923Y9 whole entry): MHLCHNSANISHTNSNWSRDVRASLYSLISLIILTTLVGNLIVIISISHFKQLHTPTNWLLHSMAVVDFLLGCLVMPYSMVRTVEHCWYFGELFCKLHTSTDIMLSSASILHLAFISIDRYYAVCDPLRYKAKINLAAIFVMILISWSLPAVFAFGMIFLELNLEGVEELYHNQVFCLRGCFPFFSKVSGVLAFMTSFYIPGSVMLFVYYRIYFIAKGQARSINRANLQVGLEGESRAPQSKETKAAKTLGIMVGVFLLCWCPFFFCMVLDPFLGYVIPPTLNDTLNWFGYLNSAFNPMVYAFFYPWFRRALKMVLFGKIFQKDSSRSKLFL

Row | SMILES | Ki [1] [µM] | Ki [2] [µM] | further results
1 | N#Cc1cccc(-c2cc(-c3ccc(C4CNCCO4)cc3)n[nH]2)c1 (stereo not drawn) [Example 12, 3-[5-(4-Morpholin-2-yl-phenyl)-2H-pyrazol-3-yl]-benzonitrile hydrochloride] | 0.0615 | 0.0005 | –
2 | Fc1ccc(-c2nnc(-c3ccc([C@H]4CNCCO4)cc3)o2)cc1 [Example 17, (S)-2-(4-(5-(4-Fluorophenyl)-1,3,4-oxadiazol-2-yl)phenyl)morpholine hydrochloride] | 0.229 | 0.0032 | –
3 | Fc1ccc(-n2cc(-c3ccc([C@H]4CNCCO4)cc3)cn2)cc1 [Example 19, (S)-2-(4-(1-(4-Fluorophenyl)-1H-pyrazol-4-yl)phenyl)morpholine hydrochloride] | 0.0669 | 0.0015 | –
4 | Fc1ccc(-c2nc(-c3ccc([C@H]4CNCCO4)cc3)n[nH]2)cc1 [Example 20, (S)-2-(4-(5-(4-Fluorophenyl)-1H-1,2,4-triazol-3-yl)phenyl)morpholine hydrochloride] | 0.0779 | 0.0012 | –
5 | O=C(Nc1n[nH]c2cc(C3CNCCO3)ccc12)c1ccc(F)cc1 (stereo not drawn) [Example 21, 4-Fluoro-N-(6-(morpholin-2-yl)-1H-indazol-3-yl)benzamide hydrochloride] | 0.895 | 0.0617 | –
6 | Fc1ccc([C@@H]2COC(c3ccc([C@H]4CNCCO4)cc3)=N2)cc1 [Example 22, (S)-2-{4-[(R)-4-(4-Fluoro-phenyl)-4,5-dihydro-oxazol-2-yl]-phenyl}-morpholine] | 1.51 | 0.0318 | –
7 | Fc1ccc(-c2nc(-c3ccc([C@@H]4CNCCO4)cc3)n[nH]2)cc1 [Example 23, (R)-2-(4-(5-(4-Fluorophenyl)-1H-1,2,4-triazol-3-yl)phenyl)morpholine hydrochloride] | 0.0196 | 0.0015 | –
8 | c1cc([C@H]2CNCCO2)ccc1-c1cc(C2CCOCC2)[nH]n1 [Example 24, (S)-2-(4-(5-(Tetrahydro-2H-pyran-4-yl)-1H-pyrazol-3-yl)phenyl)morpholine hydrochloride] | 0.0722 | > 20 | –
9 | Fc1ccc(-n2cc(-c3ccc([C@@H]4CNCCO4)cc3)cn2)cc1 [Example 26, (R)-2-(4-(1-(4-Fluorophenyl)-1H-pyrazol-4-yl)phenyl)morpholine hydrochloride] | 0.0122 | 0.0006 | –
10 | N#Cc1ccc(-c2cc(-c3ccc([C@H]4CNCCO4)cc3)n[nH]2)cc1 [Example 28, (S)-4-(3-(4-(Morpholin-2-yl)phenyl)-1H-pyrazol-5-yl)benzonitrile hydrochloride] | 0.0168 | 0.001 | –
11 | Fc1ccc(-c2cc(-c3ccc([C@H]4CNCCO4)cc3)n[nH]2)cc1 [Example 29, (S)-2-(4-(5-(4-Fluorophenyl)-1H-pyrazol-3-yl)phenyl)morpholine hydrochloride] | 0.0044 | 0.0007 | –
12 | Fc1ccc(-c2cc(-c3ccc([C@@H]4CNCCO4)cc3)n[nH]2)cc1 [Example 31, (R)-2-(4-(5-(4-Fluorophenyl)-1H-pyrazol-3-yl)phenyl)morpholine hydrochloride] | 0.0036 | 0.001 | –
13 | N#Cc1ccc(-c2cc(-c3ccc([C@@H]4CNCCO4)cc3)n[nH]2)cc1 [Example 32, (R)-4-(3-(4-(Morpholin-2-yl)phenyl)-1H-pyrazol-5-yl)benzonitrile hydrochloride] | 0.0154 | 0.0019 | –
14 | Fc1ccc(-c2nnc(-c3ccc([C@@H]4CNCCO4)cc3)o2)cc1 [Example 34, (R)-2-(4-(5-(4-Fluorophenyl)-1,3,4-oxadiazol-2-yl)phenyl)morpholine hydrochloride] | 0.156 | 0.004 | –
15 | Clc1ccc(-c2cc(-c3ccc([C@H]4CNCCO4)cc3)n[nH]2)cn1 [Example 37, (S)-2-{4-[5-(6-Chloro-pyridin-3-yl)-1H-pyrazol-3-yl]-phenyl}-morpholine hydrochloride] | 0.304 | 0.004 | –
16 | Clc1ccc(-c2cc(-c3ccc([C@@H]4CNCCO4)cc3)n[nH]2)cn1 [Example 38, (R)-2-{4-[5-(6-Chloro-pyridin-3-yl)-1H-pyrazol-3-yl]-phenyl}-morpholine hydrochloride] | 0.0257 | 0.0027 | –
17 | Fc1ccc(-c2cc(-c3ccc([C@H]4CNCCO4)cc3F)n[nH]2)cc1 [Example 40, (S)-2-(3-Fluoro-4-(5-(4-fluorophenyl)-1H-pyrazol-3-yl)phenyl)morpholine hydrochloride] | 0.0155 | 0.0012 | –
18 | Fc1ccc(-c2cc(-c3ccc([C@@H]4CNCCO4)cc3F)n[nH]2)cc1 [Example 41, (R)-2-(3-Fluoro-4-(5-(4-fluorophenyl)-1H-pyrazol-3-yl)phenyl)morpholine hydrochloride] | 0.0043 | 0.0011 | –
19 | FC(F)(F)c1cnc2[nH]c3ccc([C@H]4CNCCO4)cc3c2c1 [Example 46, (S)-2-(3-(Trifluoromethyl)-9H-pyrido[2,3-b]indol-6-yl)morpholine hydrochloride] | 0.0698 | 0.0023 | –
20 | Clc1cnc2[nH]c3ccc([C@H]4CNCCO4)cc3c2c1 [Example 47, (S)-2-(3-Chloro-9H-pyrido[2,3-b]indol-6-yl)morpholine hydrochloride] | 0.075 | 0.0032 | –
21 | FC(F)(F)c1cnc2[nH]c3ccc([C@@H]4CNCCO4)cc3c2c1 [Example 48, (R)-2-(3-(Trifluoromethyl)-9H-pyrido[2,3-b]indol-6-yl)morpholine hydrochloride] | – | – | Ki ([1]; hydrochloride): 0.0639 µM; Ki ([2]; hydrochloride): 0.0081 µM
22 | FC(F)(F)c1cnc2[nH]c3ccc([C@@H]4CNCCO4)cc3c2c1 [Example 50, (R)-2-(3-(Trifluoromethyl)-9H-pyrido[2,3-b]indol-6-yl)morpholine hydrochloride] | – | – | Ki ([1]; hydrochloride): 0.0303 µM; Ki ([2]; hydrochloride): 0.0082 µM
23 | FC(F)(F)c1ccc(-c2nc3ccc([C@@H]4CNCCO4)cc3o2)cn1 [Example 53, (R)-6-(Morpholin-2-yl)-2-(6-(trifluoromethyl)pyridin-3-yl)benzo[d]oxazole hydrochloride] | 0.226 | 0.0463 | –
24 | CCN(C[C@H]1COC(N)=N1)c1ccccc1 [^3[H]-(S)-4-[(ethyl-phenyl-amino)-methyl]-4,5-dihydro-oxazol-2-ylamine, reference compound] | – | – | Kd ([1]; rat TAAR1, saturation curve, usual value per membrane batch, read-out: dissociation constant (Kd) of the radioligand): ~2.3 nM; Kd ([2]; mouse TAAR1, saturation curve, usual value per membrane batch, read-out: dissociation constant (Kd) of the radioligand): ~0.7 nM
